# Results taken from publication PMC9968717, “Breakthrough: a first-in-class virtual simulator for dose optimization of ACE inhibitors in translational cardiovascular medicine” (Scientific Reports, 2023).
# Structures can show the parent of a compound that is named as a salt.
# Key:
# [1] = Animal safety monitoring of study dogs given oral benazepril; assay type: in vivo; details: healthy beagles; benazepril PO 0.125 mg/kg q12h, 0.25 mg/kg q12h, 0.5 mg/kg q24h (crossover)
# Source text: All study dogs received all oral doses of benazepril as intended. Dogs were monitored for adverse effects associated with benazepril labeling as well those associated with general animal welfare e.g., vomiting, diarrhea, inappetence, weakness/hypotension, fatigue, incoordination, hypercreatininemia.
# Nine purpose-bred laboratory beagles (5 castrated males and 4 spayed females), 40–42 months old, weighing 9.0–13.5 kg were randomized based on body weight and sex into three oral dosing groups of benazepril. Systemic and cardiovascular health of all dogs was confirmed prior to the study with physical examination, routine laboratory screening (complete blood count, serum biochemical analysis), blood pressure measurement, and echocardiography.
# This 35-day prospective study was divided into three periods with three different benazepril dosing groups: (A) 0.125 mg/kg q12hr PO, (B) 0.25 mg/kg q12hr PO, and (C) 0.5 mg/kg q24hr PO. All dogs received all treatments using a […] crossover (ABC/BCA/CAB) design. Dogs were sampled in the same order at each time point and exact time of sampling was recorded. […]
# Venous blood samples were collected from an external jugular or cephalic vein with a 1 inch, 20-gauge or 22-gauge needle attached to a 6 mL syringe. […] Samples for complete blood counts or serum chemistry panels were analyzed by the Iowa State Clinical Pathology Laboratory.
# [2] = dog, in vivo; cited from earlier work
# [3] = test system: ACE activity; details: dogs, cited from earlier work; for Duration of ACE suppression: single dose 0.5 mg/kg
# [4] = NLME/QSP model fit of plasma benazeprilat pharmacokinetics after oral benazepril; assay type: in vivo, dogs (beagles); details: beagle, dog, population estimate, beagles, read-out: Clearance rate of benazeprilat (ClI), fixed effect (converted)
# Procedure: The PK portion of the base model was a conventional 2-compartment mammillary model with saturable exchange between the central and peripheral compartments. Building on this initial model, several modifications of the PK structure were evaluated. First, several standard compartment variations were tested i.e., using 1-, 2-, or 3-compartment disposition functions. Overall, a 2-compartment PK model outperformed the other candidate models based on the precision of individual parameters and overall quality of fit. Second, non-specific (low affinity, high capacity) binding of benazeprilat to plasma proteins was represented by a 3rd compartment within the central compartment, i.e., representing the free circulation of benazeprilat. The volume of the non-specific binding compartment (Vns) is a representation of the relative binding capacity of benazeprilat which is distributed in plasma but is not freely circulating or interacting with ACE. […] As is typical, quantity of benazeprilat passed between compartments is called Im, n, for inhibitor, where indexes m and n represent origin and destination compartments, respectively. […] Doses are administered in benazepril hcl, but are measured as the metabolite-benazeprilat. […] Dogs were sampled in the same order at each time point and exact time of sampling was recorded. […] The benazepril dose was calculated to the nearest 1.25 mg increment. […]
# [5] = target: T1, ACE (Canis lupus familiaris, UniProt A0A8I3S3I6); test: Michaelis–Menten model of ACE inhibition by benazeprilat within the QSP model fit; assay type: in vivo, dogs (beagles); details: population estimate, beagles
# T1 construct: from tissue; host or cells: living healthy beagle dogs; ACE in free circulation (plasma) and in tissue
# T1 sequence (A0A8I3S3I6 31-1241): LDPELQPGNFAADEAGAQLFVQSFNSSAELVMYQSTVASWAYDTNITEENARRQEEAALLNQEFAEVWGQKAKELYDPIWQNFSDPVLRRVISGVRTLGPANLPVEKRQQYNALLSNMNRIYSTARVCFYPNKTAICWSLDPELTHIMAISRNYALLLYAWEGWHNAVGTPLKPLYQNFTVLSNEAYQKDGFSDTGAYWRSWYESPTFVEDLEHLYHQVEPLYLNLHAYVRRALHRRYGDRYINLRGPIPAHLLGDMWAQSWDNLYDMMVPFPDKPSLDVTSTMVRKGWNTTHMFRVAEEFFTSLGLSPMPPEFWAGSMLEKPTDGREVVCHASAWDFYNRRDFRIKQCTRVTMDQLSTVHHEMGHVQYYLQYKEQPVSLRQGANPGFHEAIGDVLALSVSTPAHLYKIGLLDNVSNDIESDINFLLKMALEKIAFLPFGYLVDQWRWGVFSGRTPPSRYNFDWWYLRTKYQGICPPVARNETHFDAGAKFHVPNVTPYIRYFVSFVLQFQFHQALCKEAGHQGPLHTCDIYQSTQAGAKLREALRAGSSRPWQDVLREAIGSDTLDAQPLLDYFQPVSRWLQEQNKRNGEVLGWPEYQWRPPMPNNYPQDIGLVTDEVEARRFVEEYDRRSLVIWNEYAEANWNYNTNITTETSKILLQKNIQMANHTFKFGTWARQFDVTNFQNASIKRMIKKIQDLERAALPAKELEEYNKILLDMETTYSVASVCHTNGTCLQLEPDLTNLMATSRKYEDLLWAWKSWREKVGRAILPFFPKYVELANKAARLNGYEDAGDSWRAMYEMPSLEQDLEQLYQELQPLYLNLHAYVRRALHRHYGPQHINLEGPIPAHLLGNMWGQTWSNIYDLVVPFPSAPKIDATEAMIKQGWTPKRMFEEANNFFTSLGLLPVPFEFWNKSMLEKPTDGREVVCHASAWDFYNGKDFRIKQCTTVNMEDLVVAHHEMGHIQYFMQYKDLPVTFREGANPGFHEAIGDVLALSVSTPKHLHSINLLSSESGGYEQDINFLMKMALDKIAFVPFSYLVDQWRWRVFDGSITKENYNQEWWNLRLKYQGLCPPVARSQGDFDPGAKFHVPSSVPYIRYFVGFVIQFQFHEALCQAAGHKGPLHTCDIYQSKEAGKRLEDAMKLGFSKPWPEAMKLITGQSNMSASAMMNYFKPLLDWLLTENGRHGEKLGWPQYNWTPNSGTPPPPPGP
# Source text: Benazeprilat primary mechanism of action is inhibiting ACE to prevent the catalysis of AngI into AngII. To account for this mechanism, a logistic saturation model was first implemented. […] The distribution of ACE across tissue (ts) and free circulation (fr) was also considered. The nomenclature used throughout Eq. (3) is consistent with previous descriptions of the Michaelis–Menten model[26].3 E˙fr=-k-1·Efr·Sfr+k1·ESfr-k-3·Efr·Ifr+k3·EIfr+k2·ESfrE˙Sfr=k-1·Efr·Sfr-k1·ESfr-k2·ESfrE˙Ifr=k-3·Efr·Ifr-k3·EIfrE˙ts=-k-1·Ets·Sts+k1·ESts-k-3·Ets·Its+k3·EIts+k2·EStsE˙Sts=k-1·Ets·Sts-k1·ESts-k2·EStsE˙Its=k-3·Ets·Its-k3·EIts
# Figure 3 Detailed model diagram. Detailed diagram of the final model structure. […] A Michaelis–Menten kinetic model of inhibitor, substrate, and enzyme interaction was used to describe the competitive inhibition of ACE by benazeprilat. k3 and k-3 were the parameters governing ACE-benazeprilat (enzyme-inhibitor) association and dissociation, while k1 and k-1 determined the rate of ACE-angiotensin (enzyme–substrate) association and dissociation. k2 controlled the production rate of angiotensin II from angiotensin I via ACE. […]
# The recorded data (yij) were imported into Monolix […] (Lixoft, France) and used to estimate population parameters (μ) and variance via the stochastic approximation expectation maximization algorithm (SAEM)[46]. […]
# [6] = single PO dose, ref 2 (b6), ref 17 King et al.
clearance [4] [mL/min],"Rate of ACE-benazeprilat dissociation in vivo, scaled (k3s), fixed effect [5] [s⁻¹]",SMILES,Adverse effects [1],Serial complete blood counts and chemistry panels: hematologic or biochemical abnormalities [1],Dose up to which safety has been established [2],"Dosage from which ACE inhibition in plasma was independent of dosage [3, 6] [mg/kg]","Duration of suppression of ACE activity [3, 6]",Duration of ACE suppression [3] [h]
,,"CCOC(=O)[C@H](CCc1ccccc1)N[C@H]1CCc2ccccc2N(CC(=O)O)C1=O [benazepril, Benazepril hydrochloride]",No adverse effects were observed,no evidence of hematologic or biochemical abnormalities,up to 1 mg/kg q24h,≥ 0.25,up to 24 h,< 12
455,7.0,O=C(O)CN1C(=O)[C@@H](N[C@@H](CCc2ccccc2)C(=O)O)CCc2ccccc21 [benazeprilat],,,,,,
,,CCOC(=O)[C@H](CCc1ccccc1)N[C@@H](C)C(=O)N1CCC[C@H]1C(=O)O [enalapril],,,,,,< 12
